≈ marks a conversion by molar mass, not a printed value. Where no end group is shown, it is not given here.

For the first assay, the system named is planktonic P. aeruginosa. The settings on record: broth dilution in MHB, 0-40 μM peptide, no visual growth after 24 h at 37 °C, polypropylene 96 wells plate.
Experimental: Antimicrobial activity of HDP’s against planktonic P. aeruginosa was assessed using broth dilution assays. An overnight culture of P. aeruginosa was grown in MHB at 37 °C to mid-logarithmic phase and diluted to 2 × 10^6 CFU/ml. In a round bottom polypropylene 96 wells plate 50 μl bacteria were mixed with 50 μl of HDP (final concentration 0–40 μM). MIC was defined as the concentration of peptide which inhibited visual growth of bacteria in the wells after 24 h incubation at 37 °C. Subsequently, wells without visual growth were plated out on TSA plates and incubated at 37 °C for 24 h to determine the MBC.
On to `CC[C@H](C)[C@H](NC(=O)[C@H](CCCCN)NC(=O)[C@H](CCC(=O)O)NC(=O)[C@H](CCCCN)NC(=O)[C@H](CO)NC(=O)[C@H](CCCCN)NC(=O)[C@H](CCCNC(=N)N)NC(=O)[C@H](Cc1ccccc1)NC(=O)[C@H](Cc1ccccc1)NC(=O)[C@H](CC(=O)O)NC(=O)CNC(=O)[C@H](CC(C)C)NC(=O)[C@@H](N)CC(C)C)C(=O)NCC(=O)N[C@@H](CCCCN)C(=O)N[C@@H](CCC(=O)O)C(=O)N[C@@H](Cc1ccccc1)C(=O)N[C@@H](CCCCN)C(=O)N[C@@H](CCCNC(=N)N)C(=O)N[C@H](C(=O)N[C@H](C(=O)N[C@@H](CCC(N)=O)C(=O)N[C@@H](CCCNC(=N)N)C(=O)N[C@H](C(=O)N[C@@H](CCCCN)C(=O)N[C@@H](CC(=O)O)C(=O)N[C@@H](Cc1ccccc1)C(=O)N[C@@H](CC(C)C)C(=O)N[C@@H](CCCNC(=N)N)C(=O)N[C@@H](CC(N)=O)C(=O)N[C@@H](CC(C)C)C(=O)N[C@H](C(=O)N1CCC[C@H]1C(=O)N[C@@H](CCCNC(=N)N)C(=O)N[C@H](C(=O)N[C@@H](CCC(=O)O)C(=O)N[C@@H](CO)C(=O)O)[C@@H](C)O)C(C)C)[C@@H](C)CC)C(C)C)[C@@H](C)CC` [LL-37], for which the MIC (usually the least concentration at which growth counts as inhibited) amounted to 10 µM (≈ 44.9 µg/mL).
Same read-out and setting: in the case of “GLLRKGGEKIGEKLKKIGQKIKNFFQKLVPQPEQ [CRAMP]” it was 40 µM.

Staying with this assay, now noted: planktonic, 24 h.
Take KRFGRLAKSFLRMRILLPRRKILLAS [eCATH-1]: the MBC (in general, the lowest tested concentration that kills the bacteria rather than only halting them) lay within 5 to 10 µM and the MIC is 2.5 to 5 µM.
With “KRFHSVGSLIQRHQQMIRDKSEATRHGIRIITRPKLLLAS [eCATH-3]”, the MBC is above 40 µM and the MIC was above 40 µM.
In turn, KRRHWFPLSFQEFLEQLRRFRDQLPFP [eCATH-2] yielded an MBC above 40 µM and an MIC above 40 µM.
The compound RFGRFLRKIRRFRPKVTITIQGSARF [cCATH-2] returned an MBC of 10 to 20 µM and an MIC of 5 to 10 µM.
The corresponding values for RIIDLLWRVRRPQKPKFVTVWVR [PMAP-23] are above 40 µM and 40 µM.
“RLKELITTGGQKIGEKIRRIGQRIKDFFKNLQPREEKS [K9CATH]”: the MBC was above 40 µM and the MIC came out at 40 µM.
The like results for “RRRPRPPYLPRPRPPPFFPPRLPPRIPPGFPPRFPPRFP [PR-39]” were, in that order, 10 µM and 5 to 10 µM.
RVKRFWPLVPVAINTVAAGINLYKAIRRK [cCATH-3] had an MBC of 5 to 10 µM.

Still in this assay, the particulars now being: wells without visual growth plated on TSA, 24 h at 37 °C.
`CC[C@H](C)[C@H](NC(=O)[C@H](CCCCN)NC(=O)[C@H](CCC(=O)O)NC(=O)[C@H](CCCCN)NC(=O)[C@H](CO)NC(=O)[C@H](CCCCN)NC(=O)[C@H](CCCNC(=N)N)NC(=O)[C@H](Cc1ccccc1)NC(=O)[C@H](Cc1ccccc1)NC(=O)[C@H](CC(=O)O)NC(=O)CNC(=O)[C@H](CC(C)C)NC(=O)[C@@H](N)CC(C)C)C(=O)NCC(=O)N[C@@H](CCCCN)C(=O)N[C@@H](CCC(=O)O)C(=O)N[C@@H](Cc1ccccc1)C(=O)N[C@@H](CCCCN)C(=O)N[C@@H](CCCNC(=N)N)C(=O)N[C@H](C(=O)N[C@H](C(=O)N[C@@H](CCC(N)=O)C(=O)N[C@@H](CCCNC(=N)N)C(=O)N[C@H](C(=O)N[C@@H](CCCCN)C(=O)N[C@@H](CC(=O)O)C(=O)N[C@@H](Cc1ccccc1)C(=O)N[C@@H](CC(C)C)C(=O)N[C@@H](CCCNC(=N)N)C(=O)N[C@@H](CC(N)=O)C(=O)N[C@@H](CC(C)C)C(=O)N[C@H](C(=O)N1CCC[C@H]1C(=O)N[C@@H](CCCNC(=N)N)C(=O)N[C@H](C(=O)N[C@@H](CCC(=O)O)C(=O)N[C@@H](CO)C(=O)O)[C@@H](C)O)C(C)C)[C@@H](C)CC)C(C)C)[C@@H](C)CC` [LL-37]: the MBC lay within 10 to 20 µM.
The same measure, in the same setting: in the case of “GLLRKGGEKIGEKLKKIGQKIKNFFQKLVPQPEQ [CRAMP]” it was above 40 µM.

The values above are taken from paper PMC6041282, “Inhibition and Eradication of Pseudomonas aeruginosa Biofilms by Host Defence Peptides” (Scientific Reports, 2018).
